Results published in PubChem BioAssay (NCI).
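1) Cells in 96-well plates. 2) Compound, 48 h, 5 concentrations. 3) Linear interpolation between surrounding doses. 4) Unreached endpoint = highest concentration. TGI: total growth inhibition.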

Legend:
Test in all cases: NCI tumour cell line growth inhibition, 48 h
LOX IMVI melanoma = system: LOX IMVI melanoma
SF-268 CNS = system: SF-268 CNS
RXF 393 renal = system: RXF 393 renal
MALME-3M melanoma = system: MALME-3M melanoma
MCF7 breast = system: MCF7 breast
HOP-62 NSCLC = system: HOP-62 NSCLC
SK-MEL-2 melanoma = system: SK-MEL-2 melanoma
COLO 205 colon = system: COLO 205 colon
786-0 renal = system: 786-0 renal
SR leukemia = system: SR leukemia
TK-10 renal = system: TK-10 renal
HCT-116 colon = system: HCT-116 colon
UACC-257 melanoma = system: UACC-257 melanoma
HT29 colon = system: HT29 colon
SNB-75 CNS = system: SNB-75 CNS
NCI-H460 lung = system: NCI-H460 lung
SF-295 CNS = system: SF-295 CNS
SK-OV-3 ovarian = system: SK-OV-3 ovarian
A498 renal = system: A498 renal

Structure (SMILES) | TGI (LOX IMVI melanoma) | TGI (SF-268 CNS) | TGI (RXF 393 renal) | TGI (MALME-3M melanoma) | TGI (MCF7 breast) | TGI (HOP-62 NSCLC) | TGI (SK-MEL-2 melanoma) | TGI (COLO 205 colon) | TGI (786-0 renal) | TGI (SR leukemia) | TGI (TK-10 renal) | TGI (HCT-116 colon) | TGI (UACC-257 melanoma) | TGI (HT29 colon) | TGI (SNB-75 CNS) | TGI (NCI-H460 lung) | TGI (SF-295 CNS) | TGI (SK-OV-3 ovarian) | TGI (A498 renal)
CC(=O)N1C(OC(C)C)CC(C)N1c1ccccc1 (stereo not given) | > 10 µM | > 10 µM | > 10 µM | > 10 µM | > 10 µM | > 10 µM | > 10 µM | > 10 µM | > 10 µM | > 10 µM | > 10 µM | > 10 µM | > 10 µM | > 10 µM | > 10 µM | > 10 µM | > 10 µM |  | 
O=c1c2ccccc2nc(-c2cc3c(cc2Cl)Sc2nccn2S3(=O)=O)n1-c1ccccc1 | > 100 µM | 22.2 µM | 36 µM | > 100 µM | 27.5 µM | 35.7 µM | 43.5 µM | > 100 µM | 94.6 µM | > 100 µM | 49.9 µM | 29.8 µM | 34.2 µM | > 100 µM | 52.2 µM | > 100 µM | 52.9 µM | > 100 µM | 
CN(C)c1ccc(/C=C/C(=O)CC(=O)/C=C/c2ccc(N(C)C)cc2)cc1 | > 100 µM | > 100 µM | > 100 µM | > 100 µM | > 100 µM | > 100 µM | > 100 µM | > 100 µM | > 100 µM | 76.7 µM | > 100 µM | > 100 µM |  | > 100 µM | > 100 µM | > 100 µM | > 100 µM | > 100 µM | 
COc1ccc(CCCCl)c(C2=NCCc3cc(OC)c(OC)cc32)c1 |  | > 100 µM | > 100 µM |  | > 100 µM | > 100 µM | > 100 µM | 68.9 µM | > 100 µM | > 100 µM | > 100 µM | > 100 µM | > 100 µM | > 100 µM | > 100 µM | > 100 µM | > 100 µM | > 100 µM | > 100 µM
O=c1[nH]nc(-c2ccccc2)n1Nc1ccccc1 | > 100 µM | > 100 µM | > 100 µM | > 100 µM |  |  | > 100 µM | > 100 µM | > 100 µM | > 100 µM | > 100 µM | > 100 µM | > 100 µM | > 100 µM | > 100 µM | > 100 µM | > 100 µM | > 100 µM | > 100 µM
Cc1ccc2nc(Cl)c(/C=N/N3C(=O)/C(=C/c4cccc([N+](=O)[O-])c4)N=C3c3ccccc3)cc2c1 | > 100 µM | > 100 µM |  |  | 93.7 µM | > 100 µM | 61.7 µM | > 100 µM | > 100 µM | 59.6 µM | > 100 µM | > 100 µM | > 100 µM | > 100 µM | > 100 µM | > 100 µM | > 100 µM | > 100 µM | 52.3 µM
CC1=NN(c2cccc(Cl)c2)C(=N/c2nc3ccccc3s2)/C1=C\c1ccc(Cl)cc1 | 34 µM | 38.6 µM | 42.1 µM |  | 65.3 µM | 54.5 µM | 34.2 µM |  | 34 µM | 81 µM | 64.3 µM | 30.7 µM | 51.2 µM | 34 µM | > 100 µM | 34.3 µM | 61.6 µM | 95.3 µM | 43.9 µM
